Test results published in patent US8633165B2, “Neuroprotective effects of 2DG in traumatic brain injury” (Wisconsin Alumni Research Foundation, priority 2010, dated 2014).
Entries after “also recorded” stand apart in the source; their conditions may differ.

Legend:
[1] = test system: mice; settings: Stafstrom et al., 2009; cited from earlier work
[2] = test system: hippocampal brain slices; settings: evoked by 7.5 mM [K+]o, 4-amino-pyridine, bicuculline, DHPG; Stafstrom et al., 2009; cited from earlier work
[3] = test system: rats with TBI induced by CCI in fronto-parietal and temporo-parietal cortex; test: Corpus callosum and fornix DTI (FA) after TBI induced by CCI; type: in vivo, rat; settings: for ex vivo corpus callosum (CC) FA: CCI location by treatment interaction p=0.038, fronto-parietal CCI
From the text: (§1) “Fast” rats and “slow” rats from the 9th-11th generations selected by these procedures were subjected to TBI induced by the method of controlled cortical impact (CCI) using published protocols (see Dixon et al., 1991, J. Neuro. Meth. 39: 253-262). During the induction of TBI by CCI, the rats were deeply anesthetized with isoflurane (3% for induction, 1.5-2.5% for maintenance) and were placed in a stereotaxic frame. After craniotomy with the dura intact, anesthesia was reduced to 1% isoflurane for a 5-min equilibration period and CCI was performed over temporo-parietal cortex (−1 to −6 mm from bregma, below lateral skull ridge) and fronto-parietal cortex (+5.3 to −0.3 mm from bregma, below lateral skull ridge), which are more and less likely, respectively, to damage the hippocampus and amygdala. Brain lesions were induced by a digitally-controlled contusion device using a pneumatically driven impactor with a sterilized rounded stainless steel tip (3-4 mm in diameter) which compresses the cortex with a specified velocity, depth, and dwell time varied to induce a range of injury severity (ranging from mild, with parameters of 4.0 m/s, 1.0 mm deformation, dwell time 50 mS, to severe, at 6.0 m/s, 2.5 mm deformation, dwell time 50 mS). Anesthesia was then administered at maintenance levels (1.5-2.5%), the craniotomy and wound were closed, and the rats were allowed to recover. The location, severity, and progression of induced cortical and subcortical damage was examined by serial in vivo magnetic resonance imaging (MRI) and diffusion tensor imaging (DTI) techniques at 1 week, 1 month, and 6 months after TBI.
(§2) The effects of 2DG on TBI induced by CCI in fronto-parietal and temporo-parietal cortex were evaluated in “fast” kindling-susceptible and “slow” kindling-resistant rats. Half of the rats from these strains received 2DG at 40 mg/kg IP 30 min prior to CCI, and then 250 mg/kg immediately after and twice daily for 2 weeks. These rats were compared to control groups with TBI induced by CCI that were treated only with an equivalent volume of saline. Both treatment groups were also compared to sham-injured rats that underwent all aspects of the experimental manipulations except for CCI.
(§3) The effects of 2DG treatment on the location, severity, and progression of induced cortical and subcortical damage were assessed in serial in vivo magnetic resonance imaging (MRI) and diffusion tensor imaging (DTI) studies at 1 week, 1 month, and 6 months after TBI as well as high-resolution ex vivo DTI of brains harvested from the same rats following the final in vivo imaging session. DTI is an advanced MRI modality that offers a unique view of the brain in its ability to report quantitative microstructural information at the whole-brain and in vivo scales. […]

[4] = test system: ischemic rat; settings: Combs et al., 1986; cited from earlier work
[5] = test system: rats with TBI induced by CCI in fronto-parietal and temporo-parietal cortex; test: Lateral ventricle volume by T2W MRI after TBI induced by controlled cortical impact (CCI); type: in vivo, rat; settings: for proportional change in lateral ventricle volume from 1 week to 1 month following injury: in vivo T2W MRI, 2DG 40 mg/kg IP 30 min prior to CCI, then 250 mg/kg immediately after and twice daily for 2 weeks, change significantly greater for saline than 2DG (p=0.015)
From the text: “Fast” rats and “slow” rats from the 9th-11th generations selected by these procedures were subjected to TBI induced by the method of controlled cortical impact (CCI) using published protocols (see Dixon et al., 1991, J. Neuro. Meth. 39: 253-262). During the induction of TBI by CCI, the rats were deeply anesthetized with isoflurane (3% for induction, 1.5-2.5% for maintenance) and were placed in a stereotaxic frame. After craniotomy with the dura intact, anesthesia was reduced to 1% isoflurane for a 5-min equilibration period and CCI was performed over temporo-parietal cortex (−1 to −6 mm from bregma, below lateral skull ridge) and fronto-parietal cortex (+5.3 to −0.3 mm from bregma, below lateral skull ridge), which are more and less likely, respectively, to damage the hippocampus and amygdala. Brain lesions were induced by a digitally-controlled contusion device using a pneumatically driven impactor with a sterilized rounded stainless steel tip (3-4 mm in diameter) which compresses the cortex with a specified velocity, depth, and dwell time varied to induce a range of injury severity (ranging from mild, with parameters of 4.0 m/s, 1.0 mm deformation, dwell time 50 mS, to severe, at 6.0 m/s, 2.5 mm deformation, dwell time 50 mS). […]
The effects of 2DG on TBI induced by CCI in fronto-parietal and temporo-parietal cortex were evaluated in “fast” kindling-susceptible and “slow” kindling-resistant rats. […]
as §3

[6] = test system: rats; settings: rat, in vivo, 250 mg/kg
Experimental: For example, dosage amount and interval of 2-DG administration can be adjusted individually to reduce incidence, frequency, duration or intensity of deleterious sequellae of TBI, particularly PTE, using doses of 40 mg/kg or less to higher as tolerated to reduce seizure frequency and minimize toxicity. […] A practitioner skilled in the art can adjust dosage in the range of 2-250 mg/kg and the timing of administration to produce prolonged neuroprotectant effects. Efficacious dosage amounts can be adjusted in children and adults, for establishing effective dosage levels.

[7] = Mattson, 1999; cited from earlier work
[8] = test system: rats; settings: perforant path and olfactory bulb stimulation in rats; Garriga-Canut et al., 2006; Stafstrom et al., 2009; cited from earlier work
[9] = test system: rats with TBI induced by CCI in fronto-parietal and temporo-parietal cortex; test: Hippocampal DTI measures (MD, FA laterality index) after TBI induced by CCI; type: in vivo, rat; settings: for in vivo hippocampal FA laterality index (LRI): fast and slow kindling strains, strain by treatment interaction p=0.088, saline vs 2DG at 1 month p=0.08; for change in in vivo ipsilateral hippocampal MD between 1 week and 6 months: paired t-test: saline p=0.0026, 2DG p=0.289, treatment by time interaction p=0.064
From the text: as §1, §2
The effects of 2DG treatment on the location, severity, and progression of induced cortical and subcortical damage were assessed in serial in vivo magnetic resonance imaging (MRI) and diffusion tensor imaging (DTI) studies at 1 week, 1 month, and 6 months after TBI as well as high-resolution ex vivo DTI of brains harvested from the same rats following the final in vivo imaging session. DTI is an advanced MRI modality that offers a unique view of the brain in its ability to report quantitative microstructural information at the whole-brain and in vivo scales. The most commonly reported DTI indices are fractional anisotropy (FA), which characterizes the “directionalness” of tissue structure (e.g. high in white matter and low in grey matter and CSF) and mean diffusion (MD), which characterizes water status (“free” or “restricted”) due to cellular barriers (e.g. high in CSF and low in tissue). Both indices are known to be sensitive to damage and other structural changes such as tissue/circuit reorganization. This makes DTI an attractive modality to investigate disorders with known or hypothesized structural abnormalities such as TBI.
MRI scanning was performed using a Varian 4.7 T scanner and a quadrature birdcage volume coil was used to transmit and receive the MRI signal. […]

For O=CC[C@@H](O)[C@H](O)[C@H](O)CO [2DG, 2-deoxy-D-glucose], the “anticonvulsant activity against seizures evoked by 6 Hz and audiogenic stimulation” value [1] is given as “acute in vivo anticonvulsant activity”, the “epileptic discharges evoked in hippocampal brain slices” value [2] is given as “acute in vitro reduction of epileptic discharges” and the “ex vivo corpus callosum (CC) FA” value [3] is given as “FA was highest for fronto-parietal, 2DG treated rats”. The “ex vivo corpus callosum (CC) FA” value ([3]; listed as 2-DG) was “reduced in all groups except for 2-DG treated rats with fronto-parietal CCI”, the “ex vivo fornix FA” value ([3]; fronto-parietal CCI vs temporo-parietal CCI, 2-DG vs saline) was “reduced in all groups except for 2-DG treated rats with fronto-parietal CCI” and the “in vivo anterior corpus callosum (aCC) FA, change from one week to six months” value ([3]; paired t-test: 2DG p=0.0099, saline p=0.8396, treatment by time interaction p=0.073) was “increase in aCC FA by 6 months post-CCI that nearly reaches control values; also recorded: significant change from one week to six months”. For the same compound, the “brain damage initiated by ischemia” value [4] was “reduced brain damage”, the “ex vivo lateral ventricle volumes” value ([5]; brains harvested after 6 months, ANOVA treatment main effect p=0.16, strain by treatment interaction p=0.06, greater volumes for saline, most evident in slow-kindled strain) was “protection from gross tissue loss” and the “proportional change in lateral ventricle volume from 1 week to 1 month following injury” value [5] was “reduced progressive volumetric changes”. For the same compound, the “proportional change in lateral ventricle volume from 1 week to 1 month following injury” value ([5]; listed as 2-DG) was “p<0.05 for the saline but not the 2-DG treated group”, the tolerability [6] was “well tolerated” and the “brain damage initiated by seizures induced by kainic acid” value [7] was “reduced brain damage”. For the same compound, the “slowing of progression of kindled seizures” value [8] was 2 fold, the “ex vivo ipsilateral hippocampal MD” value ([9]; ANOVA main effect for treatment p=0.002, compared with saline and sham-injured controls) was “restored MD measurements to the range of normal values observed in controls” and the “in vivo hippocampal FA laterality index (LRI)” value [9] was “appeared to abolish the pattern of increased LRI over 1 week to 1 month in both strains”. For the same compound, the “in vivo hippocampal FA laterality index (LRI)” value ([9]; listed as 2-DG) was “reduces FA LRI in both strains”, the “change in in vivo ipsilateral hippocampal MD between 1 week and 6 months” value [9] was “not for the 2DG treated groups” and the “change in in vivo ipsilateral hippocampal MD between 1 week and 6 months” value ([9]; listed as 2-DG) was “no significant change”.
